Experimental data: patent US20230086702A1, “SUBSTITUTED 2-AMINO-PYRAZOLYL-[1,2,4]TRIAZOLO[1,5A]PYRIDINE DERIVATIVES AND USE THEREOF” (The Johns Hopkins University, priority 2019, published 2023)

Tests used:
[1] = molecular target: T1, LZK (Homo sapiens, UniProt O43283); assay: LZK biochemical assay (TR-FRET, MKK7 phosphorylation); details: LZK catalytic domain, MKK7 substrate, 15 μM ATP
T1 construct: 10 nM LZK, catalytic domain, Carna Biosiences in assay buffer; purchased Carna Biosciences ('Carna Biosiences' [sic])
T1 sequence (O43283 168-409 limits assumed): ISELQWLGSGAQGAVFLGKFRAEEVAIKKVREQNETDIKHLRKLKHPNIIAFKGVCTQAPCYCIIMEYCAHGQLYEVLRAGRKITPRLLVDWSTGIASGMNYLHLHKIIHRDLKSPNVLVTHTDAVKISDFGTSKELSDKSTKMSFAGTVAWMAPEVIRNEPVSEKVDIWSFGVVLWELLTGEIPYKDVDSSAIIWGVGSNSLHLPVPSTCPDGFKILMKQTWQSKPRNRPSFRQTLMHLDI

[2] = molecular target: T2, DLK (Homo sapiens, UniProt Q12852); assay: DLK biochemical assay (TR-FRET, MKK7 phosphorylation); details: DLK catalytic domain, MKK7 substrate, 60 μM ATP
T2 construct: 10 nM DLK, catalytic domain, Carna Biosiences; purchased Carna Biosciences ('Carna Biosiences' [sic])
T2 sequence (Q12852 125-366 limits assumed): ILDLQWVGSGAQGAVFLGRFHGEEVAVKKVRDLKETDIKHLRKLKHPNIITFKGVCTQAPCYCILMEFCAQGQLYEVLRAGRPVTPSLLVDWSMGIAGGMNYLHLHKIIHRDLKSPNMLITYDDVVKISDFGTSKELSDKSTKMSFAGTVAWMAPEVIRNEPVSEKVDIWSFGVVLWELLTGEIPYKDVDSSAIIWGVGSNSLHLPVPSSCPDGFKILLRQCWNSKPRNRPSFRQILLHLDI
Outline: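 TR-FRET read-out (ratio of 665 nm acceptor to Eu donor channel) tracks MKK7 T275/S277 phosphorylation by DLK, using Eu-labelled anti-phospho-MKK7 and XL665-labelled anti-His on His-MKK7. Reactions were stopped and detected in pH 7.5 Tris buffer containing 100 mM EDTA, 100 mM NaCl, 200 mM KF and 0.01% Tween 20.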

IC50 [1] [nM]	IC50 [2] [nM]	Compound
2.4	0.8	CC[C@H](C)NC(=O)c1cc(-c2cnn([C@@H](CC)c3ccc(C(F)(F)F)nc3)c2)cc2nc(N)nn12 (single isomer, unassigned) [Example I-103]
70	120	CC[C@H](C)NC(=O)c1cc(-c2cnn(C3CCCC3)c2)cc2nc(N)nn12 (single isomer, unassigned) [Example I-12]
140	44	CC[C@H](C)NC(=O)c1cc(-c2cnn(C(c3ccc(OCC(F)(F)F)nc3)C3CC3)c2)cc2nc(N)nn12 (single isomer, unassigned) [Example I-120]
32	1.6	CC[C@@H](c1ccc(F)cc1)n1cc(-c2cc(C(=O)NC(C)CF)n3nc(N)nc3c2)cn1 (mixture of isomers) [Example I-148, 2-Amino-7-{1-[(1S)-1-(4-fluorophenyl)propyl]-1H-pyrazol-4-yl}-N-(1-fluoropropan-2-yl)[1,2,4]triazolo[1,5-a]pyridine-5-carboxamide]
4.7	1.5	CC[C@H](C)NC(=O)c1cc(-c2cnn(C(c3ccc(C(F)F)nc3)C(C)C)c2)cc2nc(N)nn12 (mixture of isomers) [Example I-95, 2-Amino-N-[(2S)-butan-2-yl]-7-(1-{1-[6-(difluoromethyl)pyridin-3-yl]-2-methylpropyl}-1H-pyrazol-4-yl)[1,2,4]triazolo[1,5-a]pyridine-5-carboxamide]
3.5	1.8	CC[C@H](C)NC(=O)c1cc(-c2cnn([C@H](c3ccc(C(F)(F)F)nc3)C3CC3)c2)cc2nc(N)nn12 (single isomer, unassigned) [Example I-109]
4.4	11	CC[C@H](C)NC(=O)c1cc(-c2cnn(C3CCCc4cnccc43)c2)cc2nc(N)nn12 (mixture of isomers) [Example I-20, 2-Amino-N-[(2S)-butan-2-yl]-7-[1-(5,6,7,8-tetrahydroisoquinolin-5-yl)-1H-pyrazol-4-yl][1,2,4]triazolo[1,5-a]pyridine-5-carboxamide]
66	5.4	CC[C@H](C)NC(=O)c1cc(-c2cnn(C(c3c(F)cncc3F)C(C)C)c2)cc2nc(N)nn12 (single isomer, unassigned) [Example I-125]
11	7	CC[C@H](c1ccc(C(F)(F)F)nc1)n1cc(-c2cc(C(=O)N[C@@H](C)CC)n3nc(N)nc3c2)cn1 (single isomer, unassigned) [Example I-102]

The remaining lines, values behind:

Compound	IC50 [1] [nM]	IC50 [2] [nM]
CC(CF)NC(=O)c1cc(-c2cnn(C(c3ccccc3)C(C)C)c2)cn2nc(N)nc12 (single isomer, unassigned) [Example I-142, 2-Amino-N-[1-fluoropropan-2-yl]-6-{1-[2-methyl-1-phenylpropyl]-1H-pyrazol-4-yl}[1,2,4]triazolo[1,5-a]pyridine-8-carboxamide]	240	4.2
CCC(c1ccc(C(F)(F)F)nc1)n1cc(-c2cc(C(=O)NC(C)CF)c3nc(N)nn3c2)cn1 (mixture of isomers) [Example I-147]	25	3.9
CCC(c1cncc(Cl)c1)n1cc(-c2cc(C(=O)N[C@@H](C)CC)c3nc(N)nn3c2)cn1 (single isomer, unassigned) [Example I-59]	58	20
CC[C@H](C)NC(=O)c1cc(-c2cnn(C(c3ccc(OCC(F)(F)F)nc3)C(C)C)c2)cn2nc(N)nc12 (mixture of isomers) [Example I-88, 2-Amino-N-[(2S)-butan-2-yl]-6-(1-{2-methyl-1-[6-(2,2,2-trifluoroethoxy)pyridin-3-yl]propyl}-1H-pyrazol-4-yl)[1,2,4]triazolo[1,5-a]pyridine-8-carboxamide]	120	7.5
Nc1nc2c(C(=O)N[C@H]3CCOC3)cc(-c3cnn(Cc4cccc5cn[nH]c45)c3)cn2n1 (single isomer, unassigned) [Example I-175]	150	3.8
CC[C@H](C)NC(=O)c1cc(-c2cnn(C(c3ccc(C(F)(F)F)nc3)C3CCOCC3)c2)cn2nc(N)nc12 (single isomer, unassigned) [Example I-77]	6.9	5.9
CCC(c1ccc(C(F)(F)F)nc1)n1cc(-c2cc(C(=O)N[C@@H](C)CO)c3nc(N)nn3c2)cn1 (single isomer, unassigned) [Example I-153, 2-Amino-N-[(25)-1-hydroxypropan-2-yl]-6-(1-{1-[6-(trifluoromethyl)pyridin-3-yl]propyl}-1H-pyrazol-4-yl)[1,2,4]triazolo[1,5-a]pyridine-8-carboxamide]	29	6.2
CCC(c1ccc(OC(F)(F)F)nc1)n1cc(-c2cc(C(=O)N[C@@H](C)CO)c3nc(N)nn3c2)cn1 (single isomer, unassigned) [Example I-159]	30	6.7
CC[C@H](C)NC(=O)c1cc(-c2cnn(C(c3ccc(C(F)(F)F)nc3)C3CCNCC3)c2)cn2nc(N)nc12 (single isomer, unassigned) [Example I-82]	0.5	0.9
CC[C@@H](c1ccc(C(F)(F)F)nc1)n1cc(-c2cc(C(=O)NC(C)(C)CO)c3nc(N)nn3c2)cn1 (single isomer, unassigned) [Example I-164, 2-Amino-N-(1-hydroxy-2-methylpropan-2-yl)-6-(1-{1-[6-(trifluoromethyl)pyridin-3-yl]propyl}-1H-pyrazol-4-yl)[1,2,4]triazolo[1,5-a]pyridine-8-carboxamide]	52	6.3
CC[C@@H](c1ccc(OC(F)(F)F)nc1)n1cc(-c2cc(C(=O)NC(C)(C)CO)c3nc(N)nn3c2)cn1 (single isomer, unassigned) [Example I-170, 2-Amino-N-(1-hydroxy-2-methylpropan-2-yl)-6-(1-{1-[6-(trifluoromethoxy)pyridin-3-yl]propyl}-1H-pyrazol-4-yl)[1,2,4]triazolo[1,5-a]pyridine-8-carboxamide]	18	5.5
CC[C@H](C)NC(=O)c1cc(-c2cnn(C(c3ccccc3)C3CC(F)(F)C3)c2)cn2nc(N)nc12 (single isomer, unassigned) [Example I-33]	59	2.2
CCC(c1ccc(C(F)(F)F)nc1)n1cc(-c2cc(C(=O)N[C@@H](C)CO)c3nc(N)nn3c2)cn1 (mixture of isomers) [Example I-151, 2-Amino-N-[(2S)-1-hydroxypropan-2-yl]-6-(1-{1-[6-(trifluoromethyl)pyridin-3-yl]propyl}-1H-pyrazol-4-yl)[1,2,4]triazolo[1,5-a]pyridine-8-carboxamide]	9.8	6.9
CC[C@H](C)NC(=O)c1cc(-c2cnn(C(c3ccc(C(F)(F)F)nc3)C3CCN(C(=O)OC(C)(C)C)CC3)c2)cn2nc(N)nc12 (mixture of isomers) [Example I-79, tert-Butyl 4-{(4-{2-amino-8-[(2S)-butan-2-ylcarbamoyl][1,2,4]triazolo[1,5-a]pyridin-6-yl}-1H-pyrazol-1-yl)[6-(trifluoromethyl)pyridin-3-yl]methyl}piperidine-1-carboxylate]	1.4	0.8
CCC(c1ccc(OCC(F)(F)F)nc1)n1cc(-c2cc(C(=O)N[C@H]3CCOC3)n3nc(N)nc3c2)cn1 (single isomer, unassigned) [Example I-188]	190	16
